Test system: 328373-195-R-J1-PDC complex spheroids, viability % test/control
Test: Anticancer human tumor 328373-195-R-J1-PDC patient-derived head and neck squamous carcinoma cell line growth inhibition [CLK]
Conditions: for IC50: curve of first compound; for viability, T/C: stronger effect = lower value; active means viability on the fitted dose curve at most 10% of control; inactive means the rest
How it was run: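 Multi-cell-type spheroids combined patient-derived tumor cells with HUVEC endothelial cells and human mesenchymal stem cells. Paired agents were dosed in half-log steps down from about clinical Cmax, or from 10 microM where Cmax was unknown.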

[1] = second compound 0.0316 µM, first compound 0.0316 µM
[2] = second compound 0.0316 µM, first compound 0.1 µM
[3] = second compound 0.0316 µM, first compound 0.316 µM
[4] = second compound 0.0316 µM, first compound 1 µM
[5] = second compound 0.0316 µM, first compound 3.16 µM
[6] = second compound 0.0316 µM, first compound 10 µM
[7] = second compound 0.1 µM, first compound 0.0316 µM
[8] = second compound 0.1 µM, first compound 0.1 µM
[9] = second compound 0.1 µM, first compound 0.316 µM
[10] = second compound 0.1 µM, first compound 1 µM
[11] = second compound 0.1 µM, first compound 3.16 µM
[12] = second compound 0.1 µM, first compound 10 µM
[13] = second compound 0.316 µM, first compound 0.0316 µM
[14] = second compound 0.316 µM, first compound 0.1 µM
[15] = second compound 0.316 µM, first compound 0.316 µM
[16] = second compound 0.316 µM, first compound 1 µM
[17] = second compound 0.316 µM, first compound 3.16 µM
[18] = second compound 0.316 µM, first compound 10 µM
[19] = second compound 1 µM, first compound 0.0316 µM
[20] = second compound 1 µM, first compound 0.1 µM
[21] = second compound 1 µM, first compound 0.316 µM
[22] = second compound 1 µM, first compound 1 µM
[23] = second compound 1 µM, first compound 3.16 µM
[24] = second compound 1 µM, first compound 10 µM
[25] = second compound 3.16 µM, first compound 0.0316 µM
[26] = second compound 3.16 µM, first compound 0.1 µM
[27] = second compound 3.16 µM, first compound 0.316 µM
[28] = second compound 3.16 µM, first compound 1 µM
[29] = second compound 3.16 µM, first compound 3.16 µM
[30] = second compound 3.16 µM, first compound 10 µM
[31] = second compound 10 µM, first compound 0.0316 µM
[32] = second compound 10 µM, first compound 0.1 µM
[33] = second compound 10 µM, first compound 0.316 µM
[34] = second compound 10 µM, first compound 1 µM
[35] = second compound 10 µM, first compound 3.16 µM
[36] = second compound 10 µM, first compound 10 µM
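Further: spheroids exposed to the agents for 7 days.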

C#Cc1c(F)ccc2cc(O)cc(-c3ncc4c(N5CC6CCC(C5)N6)nc(OCC56CCCN5CC(F)C6)nc4c3F)c12 (stereo unspecified) + CN1CCN(c2cc(C(=O)Nc3cc4cc(-c5cnn(C)c5)ccc4cn3)ccn2)CC1
inactive: viability, T/C [1] 92.8% | viability, T/C [2] 88% | viability, T/C [3] 109% | viability, T/C [4] 93.9% | viability, T/C [5] 103% | viability, T/C [6] 81.5% | viability, T/C [7] 80.8% | viability, T/C [8] 85.2% | viability, T/C [9] 80.1% | viability, T/C [10] 83.2% | viability, T/C [11] 88.8% | viability, T/C [12] 62.4% | viability, T/C [13] 34% | viability, T/C [14] 34.8% | viability, T/C [15] 30.9% | viability, T/C [16] 39.2% | viability, T/C [17] 32.8% | viability, T/C [18] 16.9%
active: viability, T/C [19] 0.24% | viability, T/C [20] 0.32% | viability, T/C [21] 1.75% | viability, T/C [22] 0.29% | viability, T/C [23] 0.2% | viability, T/C [24] 2.89% | viability, T/C [25] 0.63% | viability, T/C [26] 2.27% | viability, T/C [27] 3.6% | viability, T/C [28] 0.18% | viability, T/C [29] 0.13% | viability, T/C [30] 0.34% | viability, T/C [31] 1.89% | viability, T/C [32] 0.19% | viability, T/C [33] 0.24% | viability, T/C [34] 0.19% | viability, T/C [35] 0.19% | viability, T/C [36] 1.27%
> 10000 nM: IC50 (second compound 0.0316 µM) | IC50 (second compound 0.1 µM)
< 31.6 nM: IC50 (second compound 0.316 µM) | IC50 (second compound 1 µM) | IC50 (second compound 3.16 µM) | IC50 (second compound 10 µM)

COc1c(OCCCN2CCOCC2)ccc2c3n(c(=NC(=O)c4cnc(N)nc4)nc12)CCN3 + CN1CCN(c2cc(C(=O)Nc3cc4cc(-c5cnn(C)c5)ccc4cn3)ccn2)CC1
< 3.16 nM: IC50 (second compound 0.316 µM) | IC50 (second compound 1 µM) | IC50 (second compound 3.16 µM) | IC50 (second compound 10 µM)
126 nM: IC50 (second compound 0.0316 µM)
79.9 nM: IC50 (second compound 0.1 µM)
inactive: viability, T/C (second compound 0.0316 µM, first compound 0.00316 µM) 95.8% | viability, T/C (second compound 0.0316 µM, first compound 0.01 µM) 93.9% | viability, T/C [1] 77.9% | viability, T/C [2] 52.7% | viability, T/C [3] 31.9% | viability, T/C [4] 9.52% | viability, T/C (second compound 0.1 µM, first compound 0.00316 µM) 71.7% | viability, T/C (second compound 0.1 µM, first compound 0.01 µM) 77.8% | viability, T/C [7] 63.5% | viability, T/C [8] 46.4% | viability, T/C [9] 23.2% | viability, T/C [10] 10.4% | viability, T/C (second compound 0.316 µM, first compound 0.00316 µM) 32.5% | viability, T/C (second compound 0.316 µM, first compound 0.01 µM) 35.3% | viability, T/C [13] 20.4% | viability, T/C [14] 17.1%
active: viability, T/C [15] 7.35% | viability, T/C [16] 4.17% | viability, T/C (second compound 1 µM, first compound 0.00316 µM) 0.2% | viability, T/C (second compound 1 µM, first compound 0.01 µM) 1.02% | viability, T/C [19] 0.29% | viability, T/C [20] 0.33% | viability, T/C [21] 0.18% | viability, T/C [22] 4.25% | viability, T/C (second compound 3.16 µM, first compound 0.00316 µM) 0.08% | viability, T/C (second compound 3.16 µM, first compound 0.01 µM) 3.15% | viability, T/C [25] 0.9% | viability, T/C [26] 0.09% | viability, T/C [27] 2.94% | viability, T/C [28] 0.12% | viability, T/C (second compound 10 µM, first compound 0.00316 µM) 0.62% | viability, T/C (second compound 10 µM, first compound 0.01 µM) 2.77% | viability, T/C [31] 0.15% | viability, T/C [32] 0.14% | viability, T/C [33] 1.52% | viability, T/C [34] 1.72%

O=c1[nH]cc(F)c(=O)[nH]1 + CNC(=O)c1ccc(Nc2nc(OC3CCCC3)c3c(-c4ccc5nc(C)oc5c4)c[nH]c3n2)c(OC)c1
< 31.6 nM: IC50 (second compound 0.0316 µM) | IC50 (second compound 0.1 µM) | IC50 (second compound 0.316 µM) | IC50 (second compound 1 µM) | IC50 (second compound 3.16 µM) | IC50 (second compound 10 µM)
active: viability, T/C [3] 8.48% | viability, T/C [4] 5.66% | viability, T/C [5] 6.31% | viability, T/C [6] 11.2% | viability, T/C [7] 8.64% | viability, T/C [8] 5.34% | viability, T/C [9] 5% | viability, T/C [10] 3.23% | viability, T/C [11] 2.62% | viability, T/C [12] 7.23% | viability, T/C [13] 7.44% | viability, T/C [14] 6.09% | viability, T/C [15] 4.45% | viability, T/C [16] 4.15% | viability, T/C [17] 4.13% | viability, T/C [18] 6.8% | viability, T/C [19] 8.18% | viability, T/C [20] 7.54% | viability, T/C [21] 3.88% | viability, T/C [22] 2.98% | viability, T/C [23] 2.83% | viability, T/C [24] 4.21% | viability, T/C [26] 7.15% | viability, T/C [27] 3.65% | viability, T/C [28] 2.93% | viability, T/C [29] 3.84% | viability, T/C [30] 4.43% | viability, T/C [32] 8.27% | viability, T/C [33] 4.41% | viability, T/C [34] 3.11% | viability, T/C [35] 3.46% | viability, T/C [36] 1.56%
inactive: viability, T/C [1] 37% | viability, T/C [2] 18.3% | viability, T/C [25] 11% | viability, T/C [31] 12.2%
